Measured values as given in US20070093520A1, “Method of treatment of diarrhea-predominant irritable bowel syndrome in a subject” (priority 2005, published 2007).

Test system: diarrhea-predominant IBS subjects
Format: in vivo, human
Conditions: TEAE incidence, 2 mg, Safety Population
Experimental: The study was performed in approximately 150 study centers. Approximately 1600 eligible subjects were to be given cilansetron 2 mg TID. At Visit 1, pre-treatment assessments were conducted. […] Subjects were to return to the study site one month later for Visit 3 (Day 31) for their first interim assessment. […] All subjects who discontinued from the study were to have the same post-study assessments required at Visit 7 performed at their early termination visit. […]
Stool specimens were analyzed at every visit for occult blood. An independent GERB had been established to provide advice on GI AEs during the course of the study.
Adverse events were assessed at Baseline, at each clinic visit, and at the end of the study (Month 12 or the early termination visit). All AEs, which occurred during the study were followed up in accordance with good medical practice until resolved or judged no longer clinically significant, or if a condition was chronic, until fully characterized. Adverse events could occur in the specified follow-up period and, regardless of the interval since the last administration of the study medication, were treated in the same manner as an AE which occurred during the treatment with study medication. Each AE was evaluated for duration, severity, seriousness, and causal relationship to the investigational drug. The action taken and the outcome were also recorded.
Specifically, subjects who were lost to follow-up and had no post-Baseline contact with the site were excluded from the Safety population. The subjects who discontinued from the study due to lost to follow-up were identified based on the information collected on the study termination CRF page.
After the pretreatment assessment at Visit 1 (Days […] to −3), subjects were to return to the study site for a Baseline assessment and start the treatment at Visit 2 (Day 1).
For the by time-interval analyses of disposition, prevalence of AEs, and of markedly abnormal and predefined changes in laboratory values, vital signs, and ECGs, the following interval windows were used:
Adverse events that were already present prior to the first dose of cilansetron study medication but increased in severity afterwards were considered as treatment-emergent.
The 5% cutoff point was based on the incidence within higher level terms.
Subjects were counted at most once for each primary system organ class and preferred term. Serious AEs that resolved prior to receiving study medication or occurred more than 30 days after the last dose of study medication were not included in the incidence tables. A listing of all SAEs is presented; SAEs with onset prior to receiving study medication or more than 30 days after discontinuation of study medication were flagged. The listing presents lower level term and preferred term of the SAE, severity, action taken, outcome, and relationship of the SAE, start and stop date of the SAE, study day of onset of the SAE, age, race, and sex.

For `Cc1nccn1C[C@H]1CCc2c(c3cccc4c3n2CCC4)C1=O` [cilansetron, (R)-(−)-4,5,6,8,9,10-hexahydro-10-[(2-methyl-1H-imidazol-1-yl)methyl]-11H-pyrido-[3,2,1-jk]-carbazol-11-one], the “Neurosis NOS” value (PT) was 5 (<1%) n (%), the Nightmare (PT) was 2 (<1%) n (%) and the Nocturia (PT) was 1 (<1%) n (%). For the same compound, the “Oedema Peripheral” value (PT) was 1 (<1%) n (%), the “Oligomenorrhoea NOS*” value (PT) was 2 (<1%) n (%) and the Onychoschizia (PT) was 1 (<1%) n (%). The “Osteoarthritis Aggravated” value (PT) was 1 (<1%) n (%), the Osteochondrosis (PT) was 1 (<1%) n (%) and the “Osteoporosis NOS” value (PT) was 4 (<1%) n (%). For the same compound, the “Ovarian Cyst*” value (PT) was 2 (<1%) n (%), the Overweight (PT) was 1 (<1%) n (%) and the “Pain NOS” value (PT) was 5 (<1%) n (%). For the same compound, the “Pain in Limb” value (PT) was 11 (<1%) n (%), the Palpitations (PT) was 5 (<1%) n (%) and the “Panic Disorder NOS” value (PT) was 4 (<1%) n (%). For the same compound, the “Peripheral Swelling” value (PT) was 3 (<1%) n (%), the Pharyngitis (PT) was 27 (2%) n (%) and the “Pharyngolaryngeal Pain” value (PT) was 2 (<1%) n (%). The Photodermatosis (PT) was 1 (<1%) n (%), the Polyarthritis (PT) was 1 (<1%) n (%) and the “Polymenorrhoea*” value (PT) was 1 (<1%) n (%). For the same compound, the Polymyalgia (PT) was 1 (<1%) n (%), the Polyuria (PT) was 2 (<1%) n (%) and the “Post Procedural Haemorrhage” value (PT) was 1 (<1%) n (%). The “Post Procedural Pain” value (PT) was 4 (<1%) n (%), the “Postmenopausal Haemorrhage*” value (PT) was 1 (<1%) n (%) and the “Postmenopausal Symptoms*” value (PT) was 1 (<1%) n (%). The “Productive Cough” value (PT) was 1 (<1%) n (%), the “Prostatic Pain*” value (PT) was 1 (<1%) n (%) and the “Prostatitis*” value (PT) was 3 (<1%) n (%). The Proteinuria (PT) was 2 (<1%) n (%), the “Pruritus Generalised” value (PT) was 2 (<1%) n (%) and the “Pruritus NOS” value (PT) was 11 (<1%) n (%). For the same compound, the Psoriasis (PT) was 5 (<1%) n (%), the Pyoderma (PT) was 1 (<1%) n (%) and the Pyrexia (PT) was 20 (1%) n (%). The “Radius Fracture” value (PT) was 2 (<1%) n (%), the “Rash Generalised” value (PT) was 3 (<1%) n (%) and the “Rash NOS” value (PT) was 10 (<1%) n (%). For the same compound, the “Rash Papular” value (PT) was 1 (<1%) n (%), the “Rash Pruritic” value (PT) was 1 (<1%) n (%) and the “Renal Colic” value (PT) was 4 (<1%) n (%). For the same compound, the “Renal Cyst NOS” value (PT) was 1 (<1%) n (%), the “Respiratory Disorder NOS” value (PT) was 1 (<1%) n (%) and the Restlessness (PT) was 1 (<1%) n (%). For the same compound, the “Rheumatoid Arthritis” value (PT) was 1 (<1%) n (%), the “Rheumatoid Arthritis Aggravated” value (PT) was 1 (<1%) n (%) and the “Rhinitis Allergic NOS” value (PT) was 4 (<1%) n (%). The “Rhinitis NOS” value (PT) was 4 (<1%) n (%), the Rhinorrhoea (PT) was 2 (<1%) n (%) and the “Rib Fracture” value (PT) was 2 (<1%) n (%). For the same compound, the “Road Traffic Accident” value (PT) was 1 (<1%) n (%), the Rosacea (PT) was 1 (<1%) n (%) and the Scar (PT) was 1 (<1%) n (%). For the same compound, the Scleroderma (PT) was 1 (<1%) n (%), the Seborrhoea (PT) was 1 (<1%) n (%) and the “Sensation of Foreign Body NOS” value (PT) was 1 (<1%) n (%). The “Sinus Arrhythmia” value (PT) was 2 (<1%) n (%), the “Sinus Bradycardia” value (PT) was 3 (<1%) n (%) and the “Sinus Congestion” value (PT) was 1 (<1%) n (%). For the same compound, the “Sinus Tachycardia” value (PT) was 9 (<1%) n (%), the “Skin Disorder NOS” value (PT) was 1 (<1%) n (%) and the “Skin Eruption” value (PT) was 1 (<1%) n (%). The “Skin Inflammation NOS” value (PT) was 1 (<1%) n (%), the “Skin Necrosis” value (PT) was 1 (<1%) n (%) and the “Skin Odour Abnormal” value (PT) was 1 (<1%) n (%). For the same compound, the “Skin Ulcer” value (PT) was 1 (<1%) n (%), the “Sleep Disorder NOS” value (PT) was 2 (<1%) n (%) and the Sneezing (PT) was 2 (<1%) n (%). The Snoring (PT) was 1 (<1%) n (%), the “Soft Tissue Injury NOS” value (PT) was 1 (<1%) n (%) and the “Solar Keratosis” value (PT) was 1 (<1%) n (%). The “Spinal Osteoarthritis” value (PT) was 1 (<1%) n (%), the Spondylosis (PT) was 2 (<1%) n (%) and the “Sputum Discoloured” value (PT) was 1 (<1%) n (%). The “Stress Incontinence” value (PT) was 2 (<1%) n (%), the “Stress Symptoms” value (PT) was 8 (<1%) n (%) and the “Supraventricular Extrasystoles” value (PT) was 1 (<1%) n (%). For the same compound, the “Sweating Increased” value (PT) was 7 (<1%) n (%), the “Tachycardia NOS” value (PT) was 3 (<1%) n (%) and the “Tachycardia Paroxysmal NOS” value (PT) was 1 (<1%) n (%). The “Tendon Injury” value (PT) was 1 (<1%) n (%), the Tendonitis (PT) was 3 (<1%) n (%) and the “Thermal Burn” value (PT) was 1 (<1%) n (%). The Thirst (PT) was 1 (<1%) n (%), the “Toe Deformities NOS” value (PT) was 1 (<1%) n (%) and the “Tonsillar Hypertrophy” value (PT) was 1 (<1%) n (%). For the same compound, the “Traumatic Chest Injury NOS” value (PT) was 1 (<1%) n (%), the “Upper Respiratory Tract Inflammation” value (PT) was 1 (<1%) n (%) and the “Urethral Stricture” value (PT) was 1 (<1%) n (%). For the same compound, the “Urinary Frequency” value (PT) was 5 (<1%) n (%), the “Urinary Incontinence” value (PT) was 4 (<1%) n (%) and the “Urinary Incontinence Aggravated” value (PT) was 1 (<1%) n (%). For the same compound, the “Urine Odour Abnormal” value (PT) was 1 (<1%) n (%), the “Urticaria NOS” value (PT) was 4 (<1%) n (%) and the “Uterine Cervical Erosion*” value (PT) was 1 (<1%) n (%). For the same compound, the “Uterine Prolapse*” value (PT) was 1 (<1%) n (%), the “Vaginal Prolapse*” value (PT) was 1 (<1%) n (%) and the “Ventricular Extrasystoles” value (PT) was 3 (<1%) n (%). The “Ventricular Hypertrophy” value (PT) was 1 (<1%) n (%), the “Vitamin B12 Deficiency” value (PT) was 2 (<1%) n (%) and the Weakness (PT) was 14 (<1%) n (%). For the same compound, the “Weight Fluctuation” value (PT) was 1 (<1%) n (%), the Wheezing (PT) was 1 (<1%) n (%) and the “Wrist Fracture” value (PT) was 2 (<1%) n (%). For the same compound, the “Cardiac Disorders” value (SOC) was 46 (3%) n (%), the “General Disorders and Administration Site Conditions” value (SOC) was 85 (6%) n (%) and the “Injury, Poisoning and Procedural Complications” value (SOC) was 59 (4%) n (%). The “Metabolism and Nutrition Disorders” value (SOC) was 54 (4%) n (%), the “Psychiatric Disorders” value (SOC) was 74 (5%) n (%) and the “Renal and Urinary Disorders” value (SOC) was 40 (3%) n (%). For the same compound, the “Reproductive System and Breast Disorders” value (SOC) was 38 (3%) n (%), the “Respiratory, Thoracic and Mediastinal Disorders” value (SOC) was 91 (6%) n (%) and the “Skin and Subcutaneous Tissue Disorders” value (SOC) was 70 (5%) n (%).
